Assays:
[1] = system: murine adenocarcinoma CaNT tumour; assay: CaNT tumour model, ZD6126 and cisplatin, first study (tumour growth delay); type: in vivo; conditions: study 1, female CBA mice; ZD6126 100 + 100 mg/kg i.p. 2 h apart on days 0, 2, 4; cisplatin 5 mg/kg i.p. day 0
Experimental: ZD6126 alone was dosed on days 0, 2 and 4 using a split dose regimen of 100 mg/kg ZD6126, followed by a 2 hour interval, followed by a further 100 mg/kg ZD6126; doses were given intraperitoneally (i.p.).
Cisplatin (David Bull Laboratories) alone was dosed at 5 mg/kg i.p on day 0.
The combination treatment consisted of: • Day 0: ZD6126 100 mg/kg i.p., followed by a 2 hour interval, followed by a further 100 mg/kg ZD6126 i.p; and cisplatin 5 mg/kg given 10 minutes before first ZD6126 dose. • Days 2 and 4: ZD6126 100 mg/kg i.p., followed by a 2 hour interval, followed by a further 100 mg/kg ZD6126 i.p.

[2] = system: murine adenocarcinoma CaNT tumour; assay: CaNT tumour model, ZD6126 and cisplatin, second study (tumour growth delay); type: in vivo; conditions: study 2, female CBA mice; ZD6126 100 + 100 mg/kg i.p. 2 h apart on days 0, 4, 7, 11; cisplatin 5 mg/kg i.p. days 0 and 7
Experimental: ZD6126 alone was dosed on days 0, 4, 7 and 11 using a split dose regimen of ZD6126 100 mg/kg i.p., followed by a 2 hour interval, followed by a further 100 mg/kg ZD6126 i.p.. Cisplatin alone was dosed at 5 mg/kg i.p on day 0 and day 7.
The combination treatment consisted of: • Days 0 and 7: ZD6126 100 mg/kg i.p., followed by a 2 hour interval, followed by a further 100 mg/kg ZD6126 i.p.; cisplatin given 10 minutes before first ZD6126 dose. • Days 3, 7 and 10: ZD6126 100 mg/kg i.p., followed by a 2 hour interval, followed by a further 100 mg/kg ZD6126 i.p..

[3] = system: human Calu 6 tumour cells; assay: Calu 6 tumour model, ZD6126 and cisplatin (tumour growth delay); type: in vivo; conditions: athymic nude mice; ZD6126 100 mg/kg i.p. daily x5 (days 0-4 alone, days 1-5 in combination); cisplatin 4 mg/kg i.p. day 0
Experimental: In a second tumour model, Calu 6, the advantage of combining ZD6126 and cisplatin (cis-Platinum(lI)Diammine Dichloride—Sigma P-4394) was confirmed. Athymic nude mice were implanted subcutaneously with 1×10^6 human Calu 6 tumour cells (obtained from American Type Culture Collection, 10801 University Boulevard, Manassas, Va. 20110-2209 Cat. no. HTB-56) and tumours allowed to grow until they were approximately 9 mm in diameter.
Groups of 10 tumour bearing mice were then treated as follows: • ZD6126 alone was dosed 100 mg/kg i.p. on days 0, 1, 2, 3, 4. • Cisplatin alone was dosed 4 mg/kg i.p. on day 0.
In the combination arm cisplatin 4 mg/kg i.p. was dosed on day 0, and ZD6126 100 mg/kg i.p. was dosed on days 1, 2, 3, 4 and 5.

murine KHT sarcoma [4] = assay: KHT sarcoma tumour model, cisplatin plus ZD6126 (tumour cell survival, excision and colony formation); type: in vivo, mice; conditions: 10 mg/kg cisplatin i.p. alone, assessed 24 hours later
Experimental: In the murine KHT sarcoma model (Lingyun Li, B. S. et al, Int. J. Radiation Oncology Biol. Phys 42, 899-903, 1998) tumours were treated with either 10 mg/kg cisplatin i.p. alone or 10 mg/kg cisplatin plus ZD6126 (10-100 mg/kg i.p.), cisplatin given 1 hour prior to ZD6126. The effects of the treatments on tumour cell survival was assessed 24 hours later by excising the tumour, disaggregating the cells and determining the number of colonies formed after 10-14 days. Surviving fraction compared to untreated cells was then determined.

murine KHT sarcoma [5] = assay: KHT sarcoma tumour model, ZD6126 and radiation (tumour cell survival, excision and colony formation); type: in vivo, mice
Experimental: The murine KHT sarcoma grown in C3H mice was also used to confirm the advantage of combining ZD6126 and radiation. Tumours were treated with either radiation alone (0, 5, 10, 15 or 20 Gy single dose), ZD6126 100 mg/kg i.p., or radiation followed 1 hour later by ZD6126 100 mg/kg i.p.. The effects of either radiation alone, ZD6126 alone or the combination on tumour cell survival was assessed 24 hours later by excising the tumour, disaggregating the cells and determining the number of colonies formed after 10-14 days. Surviving fraction compared to untreated cells was then determined.

[6] = system: murine adenocarcinoma CaNT tumour; assay: Cell survival assay, CaNT tumour model: effect of dosage interval; type: in vivo, mice; conditions: two doses of 100 mg/kg i.p. separated by 2, 3 or 4 hours; tumours excised about 18 hours after treatment
Experimental: (§1) In vivo cell survival was measured using an excision assay (D J Chaplin et al., Anticancer Research 19: 189-196 (1999)).
(§2) Tumours were excised at about 18 hours after treatment, weighed and disaggregated for 1 hour at 37 degrees Celsius in an enzyme cocktail containing 1 mg/ml pronase, 0.5 mg/ml DNAase and 0.5 mg/ml collagenase. Haemocytometer counts of trypan blue-excluding cells were made and viable cells seeded in appropriate concentrations to yield about 50 colonies/dish after in vitro incubation. Heavily irradiated feeder cells (V79 cells) were used at a concentration of 25,000/ml to support the growth of the surviving CaNT cells. The data were calculated as surviving fraction per gram of tumour.
(§3) ZD6126 was administered as a single dose of […] intra-peritoneally (i.p.) in saline with a small amount of 1% sodium carbonate added to aid the dissolution of ZD6126.
ZD6126 was dosed using a split dose regimen of 100 mg/kg ZD6126, followed by a time interval, followed by a further 100 mg/kg ZD6126; doses were given intraperitoneally (i.p.) in saline with a small amount of 1% sodium carbonate added to aid the dissolution of ZD6126. The time intervals used were 1, 2, 3, 4 and 6 hours.

[7] = system: murine adenocarcinoma CaNT tumour; assay: Cell survival assay, CaNT tumour model: effect of dosage interval and split dose proportions; type: in vivo, mice
Experimental: as §1, §2
This improved effect varied with the proportion of total dose given in the first and second doses.
as §3
ZD6126 was dosed using split dose regimens of: • i) 25 mg/kg ZD6126, followed by a 2 hour interval, followed by a further 175 mg/kg ZD6126; • ii) 50 mg/kg ZD6126, followed by a 2 hour interval, followed by a further 150 mg/kg ZD6126; • iii) 100 mg/kg ZD6126, followed by a 2 hour interval, followed by a further 100 mg/kg ZD6126; • iv) 150 mg/kg ZD6126, followed by a 2 hour interval, followed by a further 50 mg/kg ZD6126; • v) 175 mg/kg ZD6126, followed by a 2 hour interval, followed by a further 25 mg/kg ZD6126; All doses were given intraperitoneally (i.p.) in saline with a small amount of 1% sodium carbonate added to aid the dissolution of ZD6126.

| SMILES | Mean growth delay (vs control) - days [1] | Mean growth delay (vs control) - days [2] | growth delay (time to reach 2× starting volume) compared to control tumours [3] | cell killing (murine KHT sarcoma [4]) | enhanced cell killing over controls (murine KHT sarcoma [5]; ZD6126 alone with no radiation) | Plus ZD6126 % cell survival (murine KHT sarcoma [5]; radiation dose 0 Gy, ZD6126 100 mg/kg i.p., C3H mice, 24 hours later) | Plus ZD6126 % cell survival (murine KHT sarcoma [5]; radiation dose 5 Gy followed 1 hour later by ZD6126 100 mg/kg i.p.) | Plus ZD6126 % cell survival (murine KHT sarcoma [5]; radiation dose 10 Gy followed 1 hour later by ZD6126 100 mg/kg i.p.) | Plus ZD6126 % cell survival (murine KHT sarcoma [5]; radiation dose 15 Gy followed 1 hour later by ZD6126 100 mg/kg i.p.) | surviving fraction of tumour cells, divided doses compared with single dose [6] | split dose proportion giving the best anti-tumour effect ([7]; regimen iii) 100 mg/kg + 100 mg/kg, 2 hour interval) | significance of the greater effect of divided doses over a single dose ([7]; regimens i) 25+175, iii) 100+100 or iv) 150+50 mg/kg, 2 hour interval) | anti-tumour effect, as measured by surviving fraction of tumour cells, divided doses compared with single dose ([7]; total 200 mg/kg i.p. in two doses 2 hours apart, regimens i) to v)) |
| --- | --- | --- | --- | --- | --- | --- | --- | --- | --- | --- | --- | --- | --- |
| [NH2][Pt]([NH2])([Cl])[Cl] [Cisplatin, cis-Platinum(lI)Diammine Dichloride] | 2.1 days | 7.7 days | 6.0 days | approximately 98% | – | – | – | – | – | – | – | – | – |
| COc1cc2c(c(OC)c1OC)-c1ccc(OP(=O)(O)O)cc1[C@@H](NC(C)=O)CC2 [ZD6126, (5S)-5-(acetylamino)-9,10,11-trimethoxy-6,7-dihydro-5H-dibenzo[a,c]cyclohepten-3-yl dihydrogen phosphate] | – | – | – | – | 40 fold | 2.5% | 0.16% | 0.015% | 0.0016% | significantly more effective in this model than a single 200 mg/kg dose | best effect was seen with equal split doses | significant | greater with divided doses of ZD6126 than with a single dose of 200 mg/kg ZD6126 |

— US6906048B2, “N-acetylcolchinol-O-phosphate combination therapies with vascular damaging activity” (AstraZeneca AB, priority 2000, dated 2005)
